From article PMC9516332 (Frontiers in Oncology, 2022)
Read-outs that look alike come from different tables or passages of the source.

Tested on: 134 cancer cell lines
Assay: Cell viability assay (ATPlite, 72 hours), IC50 on cancer cell line panel

Question: What does the source list for `CC(=O)Nc1cccc(-n2c(=O)n(C3CC3)c(=O)c3c(Nc4ccc(I)cc4F)n(C)c(=O)c(C)c32)c1` [trametinib]?
Answer: IC50 (Homo sapiens, MOLT-4, read-out: IC50 in cell proliferation assay, MOLT-4 cell line): 27600 nM; IC50 (Homo sapiens, MV4-11, read-out: IC50 in cell proliferation assay, MV4-11 cell line (FLT3 ITD)): 22 nM; IC50 (Homo sapiens, MeWo, read-out: IC50 in cell proliferation assay, MeWo cell line): 36 nM; IC50 (Homo sapiens, NCCIT, read-out: IC50 in cell proliferation assay, NCC-IT cell line): 871 nM; IC50 (Homo sapiens, NCI-H82, read-out: IC50 in cell proliferation assay, cell line NCI-H82): > 28200 nM; IC50 (Homo sapiens, NCI-H460, read-out: IC50 in cell proliferation assay, NCI-H460 cell line): 33 nM; IC50 (Homo sapiens, NCI-H661, read-out: IC50 in cell proliferation assay, NCI-H661 cell line): > 28200 nM; IC50 (Homo sapiens, NCI-H716, read-out: IC50 in cell proliferation assay, cell line NCI-H716 (FGFR2-COL14A1)): 34 nM; IC50 (Homo sapiens, NCI-H1650, read-out: IC50 in cell proliferation assay, NCI-H1650 cell line (EGFR exon19del)): 75 nM; IC50 (Homo sapiens, NCI-H1975, read-out: IC50 in cell proliferation assay, NCI-H1975 cell line (EGFR p.L858R + p.T790M)): 85 nM; IC50 (Homo sapiens, NCI-H2228, read-out: IC50 in cell proliferation assay, NCI-H2228 cell line (EML4-ALK)): 265 nM; IC50 (Homo sapiens, OVCAR-3, read-out: IC50 in cell proliferation assay, cell line OVCAR-3): > 28200 nM; IC50 (Homo sapiens, PFSK-1, read-out: IC50 in cell proliferation assay, cell line PFSK-1): > 28200 nM; IC50 (Homo sapiens, RL95-2, read-out: IC50 in cell proliferation assay, cell line RL95-2 (EGFR p.A289V)): 1.55 nM; IC50 (Homo sapiens, RPMI-7951, read-out: IC50 in cell proliferation assay, cell line RPMI-7951 (BRAF p.V600E)): 17 nM; IC50 (Homo sapiens, RS4-11, read-out: IC50 in cell proliferation assay, cell line RS4;11): > 28200 nM; IC50 (Homo sapiens, Rec1, read-out: IC50 in cell proliferation assay, cell line REC-1): 12300 nM; IC50 (Homo sapiens, SHP77, read-out: IC50 in cell proliferation assay, cell line SHP-77): > 28200 nM; IC50 (Homo sapiens, SK-BR-3, read-out: IC50 in cell proliferation assay, cell line SK-BR-3 (ERBB2 amplification)): > 31600 nM; IC50 (Homo sapiens, SK-N-AS, read-out: IC50 in cell proliferation assay, cell line SK-N-AS): 4 nM; IC50 (Homo sapiens, SK-N-FI, read-out: IC50 in cell proliferation assay, cell line SK-N-FI): 34 nM; IC50 (Homo sapiens, SK-N-MC, read-out: IC50 in cell proliferation assay, cell line SK-N-MC): > 31600 nM; IC50 (Homo sapiens, SK-N-SH, read-out: IC50 in cell proliferation assay, cell line SK-N-SH (ALK p.F1174L)): 17 nM; IC50 (Homo sapiens, SNU-5, read-out: IC50 in cell proliferation assay, cell line SNU-5 (MET amplification)): 12 nM; IC50 (Homo sapiens, SNU-16, read-out: IC50 in cell proliferation assay, cell line SNU-16 (FGFR2 amplification)): 146 nM; IC50 (Homo sapiens, SNU-C2B, read-out: IC50 in cell proliferation assay, cell line SNU-C2B (EGFR p.R165Q)): 41 nM; IC50 (Homo sapiens, SU-DHL-1, read-out: IC50 in cell proliferation assay, cell line SU-DHL-1 (NPM1-ALK)): 279 nM; IC50 (Homo sapiens, SU-DHL-6, read-out: IC50 in cell proliferation assay, cell line SU-DHL-6): 27 nM; IC50 (Homo sapiens, SUP-T1, read-out: IC50 in cell proliferation assay, cell line SUP-T1): > 28200 nM; IC50 (Homo sapiens, SW48, read-out: IC50 in cell proliferation assay, cell line SW48 (EGFR p.G719S)): 6 nM; IC50 (Homo sapiens, SW480, read-out: IC50 in cell proliferation assay, cell line SW480): 230 nM; IC50 (Homo sapiens, SW626, read-out: IC50 in cell proliferation assay, cell line SW626): 59 nM; IC50 (Homo sapiens, SW780, read-out: IC50 in cell proliferation assay, cell line SW780 (FGFR3-BAIAP2L1)): 20 nM; IC50 (Homo sapiens, SW837, read-out: IC50 in cell proliferation assay, cell line SW837): 98 nM; IC50 (Homo sapiens, SW872, read-out: IC50 in cell proliferation assay, cell line SW872 (BRAF p.V600E)): 23 nM; IC50 (Homo sapiens, SW900, read-out: IC50 in cell proliferation assay, cell line SW900): 111 nM; IC50 (Homo sapiens, SW948, read-out: IC50 in cell proliferation assay, cell line SW948): 26 nM; IC50 (Homo sapiens, SW982, read-out: IC50 in cell proliferation assay, cell line SW982 (BRAF p.V600E)): 929 nM; IC50 (Homo sapiens, SW-620, read-out: IC50 in cell proliferation assay, cell line SW620): 17 nM; IC50 (Homo sapiens, T98G, read-out: IC50 in cell proliferation assay, cell line T98G): > 28200 nM; IC50 (Homo sapiens, TCC-SUP, read-out: IC50 in cell proliferation assay, cell line TCCSUP): 1450 nM; IC50 (Homo sapiens, THP-1, read-out: IC50 in cell proliferation assay, cell line THP-1): 1 nM; IC50 (Homo sapiens, U2OS, read-out: IC50 in cell proliferation assay, cell line U2OS): 4 nM; IC50 (Homo sapiens, U-87 MG, read-out: IC50 in cell proliferation assay, cell line U-87MG ATCC): 245 nM; IC50 (Homo sapiens, U-118-MG, read-out: IC50 in cell proliferation assay, cell line U-118MG): 151 nM; IC50 (Homo sapiens, UMUC3, read-out: IC50 in cell proliferation assay, cell line UM-UC-3): 21 nM; IC50 (Hs766T, read-out: IC50 in cell proliferation assay, Hs 766T cell line): 2.34 nM; IC50 (L-82, read-out: IC50 in cell proliferation assay, L-82 cell line (NPM1-ALK)): 86 nM; IC50 (Rh30, read-out: IC50 in cell proliferation assay, cell line Rh30): 237 nM; IC50 (read-out: IC50 in cell proliferation assay, 11-18 cell line (EGFR p.L858R)): > 31600 nM; IC50 (read-out: IC50 in cell proliferation assay, Hs 852.T cell line): 218 nM; IC50 (read-out: IC50 in cell proliferation assay, JAR cell line): > 28200 nM; IC50 (read-out: IC50 in cell proliferation assay, cell line 5637): 297 nM; IC50 (read-out: IC50 in cell proliferation assay, cell line A-388): 99 nM; IC50 (read-out: IC50 in cell proliferation assay, cell line DB): 18900 nM; IC50 (read-out: IC50 in cell proliferation assay, cell line DEL (NPM1-ALK)): > 31600 nM; IC50 (read-out: IC50 in cell proliferation assay, cell line ES-2 (BRAF p.V600E)): 7 nM; IC50 (read-out: IC50 in cell proliferation assay, cell line PA-1): 666 nM; IC50 (read-out: IC50 in cell proliferation assay, cell line PC-3): > 28200 nM; IC50 (read-out: IC50 in cell proliferation assay, cell line RD): 4 nM; IC50 (read-out: IC50 in cell proliferation assay, cell line RKO (BRAF p.V600E)): 8 nM; IC50 (read-out: IC50 in cell proliferation assay, cell line RL): > 28200 nM; IC50 (read-out: IC50 in cell proliferation assay, cell line RT-4 (FGFR3-TACC3)): 72 nM; IC50 (read-out: IC50 in cell proliferation assay, cell line SR (NPM1-ALK)): 936 nM; IC50 (read-out: IC50 in cell proliferation assay, cell line T24): 5 nM; IC50 (read-out: IC50 in cell proliferation assay, cell line TT (RET p.C634W)): 1050 nM; IC50 (read-out: IC50 in cell proliferation assay, cell line VA-ES-BJ): 89 nM
